The target in assay [1] is T1, Nav 1.7 (Homo sapiens (Human), UniProt Q15858). As to the kind of experiment: Nav 1.7 IonWorks Quattro (IWQ) in vitro assay, population patch-clamp.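 Also: cells held at −110 mV for 3 s, then 26 pulses of 150 ms at 5 Hz, leak-corrected peak current, percent block measured before and after compound, 3–8 min exposure.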 The format is cell-based. Particulars: 293 cells stably transfected with Nav 1.7; block at 26th pulse to −20 mV. A general note: Patch clamp records ionic current or voltage across a cell membrane.
Protocol: (§1) Nav 1.7 and Nav 1.5 Ion Works Quattro (IWQ) In Vitro Assays
(§2) 293 cells stably transfected with either Nav 1.7 or with Nav 1.5 were recorded in population patch-clamp mode with the IonWorks® Quattro automated electrophysiology system in accordance with the manufacturer's specifications (Molecular Devices, LLC, Sunnyvale, Calif.). Sodium channel currents were measured in response to a train of depolarizations that induced successively greater inactivation.
(§3) Cells were held at −110 mV for three seconds (Nav 1.7) or half a second (Nav 1.5) from a holding voltage of −15 mV, then put through a series of 26 pulses of 150 msec duration to −20 mV at a frequency of 5 Hz. Cells were then left unclamped for a period of 3 to 8 minutes while a single concentration of test compound was added. Cells were then reclamped and put through the same voltage protocol. Current at the end of the 26th pulse to −20 mV was subtracted from the peak current evoked by the 26th pulse to −20 mV to correct for leak current. Percent block was calculated for each concentration in duplicate, and IC50 curves were fitted to percent block as a function of concentration.
For a further assay, the target named is Nav 1.5 (Homo sapiens (Human), UniProt Q14524). As to the kind of experiment: cell-based.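 Also: HEK293 cells stably expressing Nav1.5, sodium current at the 26th of 26 pulses to −20 mV (150 ms, 5 Hz) after compound versus before, leak-corrected, 3–8 min exposure.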
Assay [2] addresses T1, Nav 1.7. As to the kind of experiment: Nav 1.7 in vitro PatchExpress (PX) assay, whole cell voltage clamp. The format is cell-based. Particulars: 293 cells stably transfected with human Nav1.7; partially inactivated state (20 to 50% inactivation). The protocol:
Nav 1.7 In Vitro PatchExpress (PX) Assay
293 cells stably transfected with human Nav1.7 were recorded in whole cell voltage clamp mode with the PatchXpress automated electrophysiology system (Molecular Devices, LLC, Sunnyvale, Calif.). Compound effects were measured on a partially inactivated state of the sodium channel. Cells were clamped to a holding potential yielding 20 to 50% inactivation. To elicit sodium current, channels were activated by pulsing to −10 mV for 20 msec. This voltage protocol was repeated at a rate of 0.1 Hz throughout the experiment. A single concentration of test compound was applied to cells for a duration of 3 minutes. Peak sodium current was measured at the end of the compound addition period to determine percent inhibition.

Experimental findings from patent US9051311B2, “Sulfamide sodium channel inhibitors” (AMGEN INC., priority 2012, dated 2015) are described below.

Chain of Nav 1.5 (Q14524 whole entry): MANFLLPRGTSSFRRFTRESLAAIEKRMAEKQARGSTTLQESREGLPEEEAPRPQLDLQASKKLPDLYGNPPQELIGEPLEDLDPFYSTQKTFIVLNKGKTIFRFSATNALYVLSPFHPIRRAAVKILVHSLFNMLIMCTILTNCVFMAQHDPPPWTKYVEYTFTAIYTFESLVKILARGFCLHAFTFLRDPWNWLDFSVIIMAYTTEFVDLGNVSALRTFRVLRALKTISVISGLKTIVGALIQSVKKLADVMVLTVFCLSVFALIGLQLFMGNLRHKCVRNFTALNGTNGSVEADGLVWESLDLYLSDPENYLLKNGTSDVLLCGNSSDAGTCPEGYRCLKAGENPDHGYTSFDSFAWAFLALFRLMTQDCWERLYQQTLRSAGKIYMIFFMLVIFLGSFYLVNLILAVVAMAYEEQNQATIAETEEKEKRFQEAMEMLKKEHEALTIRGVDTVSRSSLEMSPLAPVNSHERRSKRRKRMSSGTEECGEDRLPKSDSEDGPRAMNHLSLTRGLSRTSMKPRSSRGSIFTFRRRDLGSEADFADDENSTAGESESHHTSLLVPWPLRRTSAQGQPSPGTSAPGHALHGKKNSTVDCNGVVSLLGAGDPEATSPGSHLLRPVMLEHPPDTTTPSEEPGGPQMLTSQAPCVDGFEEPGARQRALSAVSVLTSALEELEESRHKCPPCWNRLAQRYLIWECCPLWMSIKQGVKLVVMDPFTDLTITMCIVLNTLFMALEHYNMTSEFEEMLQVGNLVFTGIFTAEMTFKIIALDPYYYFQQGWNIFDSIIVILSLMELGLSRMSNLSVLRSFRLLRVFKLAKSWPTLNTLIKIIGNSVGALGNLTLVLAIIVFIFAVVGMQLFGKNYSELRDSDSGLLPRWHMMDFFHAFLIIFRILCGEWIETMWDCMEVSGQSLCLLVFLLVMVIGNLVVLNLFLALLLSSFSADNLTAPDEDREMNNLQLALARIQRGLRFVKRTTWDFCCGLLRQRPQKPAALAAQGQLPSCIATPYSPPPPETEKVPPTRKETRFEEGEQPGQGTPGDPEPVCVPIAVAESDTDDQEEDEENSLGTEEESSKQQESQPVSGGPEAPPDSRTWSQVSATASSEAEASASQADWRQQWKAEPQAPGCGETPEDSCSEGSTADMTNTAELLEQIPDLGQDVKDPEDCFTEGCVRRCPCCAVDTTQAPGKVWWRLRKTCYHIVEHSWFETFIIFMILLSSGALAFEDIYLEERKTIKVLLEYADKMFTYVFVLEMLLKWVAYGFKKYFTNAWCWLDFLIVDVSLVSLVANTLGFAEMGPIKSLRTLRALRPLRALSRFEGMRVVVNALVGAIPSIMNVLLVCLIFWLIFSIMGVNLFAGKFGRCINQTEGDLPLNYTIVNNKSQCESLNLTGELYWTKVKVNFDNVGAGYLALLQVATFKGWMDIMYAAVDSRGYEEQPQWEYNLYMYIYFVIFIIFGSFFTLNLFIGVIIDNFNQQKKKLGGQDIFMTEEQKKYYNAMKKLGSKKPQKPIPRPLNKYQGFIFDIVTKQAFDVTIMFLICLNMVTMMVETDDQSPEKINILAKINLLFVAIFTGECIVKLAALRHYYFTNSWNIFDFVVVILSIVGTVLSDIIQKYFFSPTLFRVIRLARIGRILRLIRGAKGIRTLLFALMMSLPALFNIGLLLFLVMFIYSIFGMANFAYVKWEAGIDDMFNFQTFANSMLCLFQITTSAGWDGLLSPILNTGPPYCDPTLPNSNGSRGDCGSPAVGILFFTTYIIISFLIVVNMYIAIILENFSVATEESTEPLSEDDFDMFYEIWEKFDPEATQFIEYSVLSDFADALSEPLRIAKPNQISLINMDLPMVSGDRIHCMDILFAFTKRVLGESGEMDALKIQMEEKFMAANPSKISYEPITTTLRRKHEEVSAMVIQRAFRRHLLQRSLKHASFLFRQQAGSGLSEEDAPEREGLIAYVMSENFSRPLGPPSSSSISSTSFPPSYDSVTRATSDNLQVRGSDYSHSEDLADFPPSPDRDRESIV
T1 sequence (Q15858 whole entry): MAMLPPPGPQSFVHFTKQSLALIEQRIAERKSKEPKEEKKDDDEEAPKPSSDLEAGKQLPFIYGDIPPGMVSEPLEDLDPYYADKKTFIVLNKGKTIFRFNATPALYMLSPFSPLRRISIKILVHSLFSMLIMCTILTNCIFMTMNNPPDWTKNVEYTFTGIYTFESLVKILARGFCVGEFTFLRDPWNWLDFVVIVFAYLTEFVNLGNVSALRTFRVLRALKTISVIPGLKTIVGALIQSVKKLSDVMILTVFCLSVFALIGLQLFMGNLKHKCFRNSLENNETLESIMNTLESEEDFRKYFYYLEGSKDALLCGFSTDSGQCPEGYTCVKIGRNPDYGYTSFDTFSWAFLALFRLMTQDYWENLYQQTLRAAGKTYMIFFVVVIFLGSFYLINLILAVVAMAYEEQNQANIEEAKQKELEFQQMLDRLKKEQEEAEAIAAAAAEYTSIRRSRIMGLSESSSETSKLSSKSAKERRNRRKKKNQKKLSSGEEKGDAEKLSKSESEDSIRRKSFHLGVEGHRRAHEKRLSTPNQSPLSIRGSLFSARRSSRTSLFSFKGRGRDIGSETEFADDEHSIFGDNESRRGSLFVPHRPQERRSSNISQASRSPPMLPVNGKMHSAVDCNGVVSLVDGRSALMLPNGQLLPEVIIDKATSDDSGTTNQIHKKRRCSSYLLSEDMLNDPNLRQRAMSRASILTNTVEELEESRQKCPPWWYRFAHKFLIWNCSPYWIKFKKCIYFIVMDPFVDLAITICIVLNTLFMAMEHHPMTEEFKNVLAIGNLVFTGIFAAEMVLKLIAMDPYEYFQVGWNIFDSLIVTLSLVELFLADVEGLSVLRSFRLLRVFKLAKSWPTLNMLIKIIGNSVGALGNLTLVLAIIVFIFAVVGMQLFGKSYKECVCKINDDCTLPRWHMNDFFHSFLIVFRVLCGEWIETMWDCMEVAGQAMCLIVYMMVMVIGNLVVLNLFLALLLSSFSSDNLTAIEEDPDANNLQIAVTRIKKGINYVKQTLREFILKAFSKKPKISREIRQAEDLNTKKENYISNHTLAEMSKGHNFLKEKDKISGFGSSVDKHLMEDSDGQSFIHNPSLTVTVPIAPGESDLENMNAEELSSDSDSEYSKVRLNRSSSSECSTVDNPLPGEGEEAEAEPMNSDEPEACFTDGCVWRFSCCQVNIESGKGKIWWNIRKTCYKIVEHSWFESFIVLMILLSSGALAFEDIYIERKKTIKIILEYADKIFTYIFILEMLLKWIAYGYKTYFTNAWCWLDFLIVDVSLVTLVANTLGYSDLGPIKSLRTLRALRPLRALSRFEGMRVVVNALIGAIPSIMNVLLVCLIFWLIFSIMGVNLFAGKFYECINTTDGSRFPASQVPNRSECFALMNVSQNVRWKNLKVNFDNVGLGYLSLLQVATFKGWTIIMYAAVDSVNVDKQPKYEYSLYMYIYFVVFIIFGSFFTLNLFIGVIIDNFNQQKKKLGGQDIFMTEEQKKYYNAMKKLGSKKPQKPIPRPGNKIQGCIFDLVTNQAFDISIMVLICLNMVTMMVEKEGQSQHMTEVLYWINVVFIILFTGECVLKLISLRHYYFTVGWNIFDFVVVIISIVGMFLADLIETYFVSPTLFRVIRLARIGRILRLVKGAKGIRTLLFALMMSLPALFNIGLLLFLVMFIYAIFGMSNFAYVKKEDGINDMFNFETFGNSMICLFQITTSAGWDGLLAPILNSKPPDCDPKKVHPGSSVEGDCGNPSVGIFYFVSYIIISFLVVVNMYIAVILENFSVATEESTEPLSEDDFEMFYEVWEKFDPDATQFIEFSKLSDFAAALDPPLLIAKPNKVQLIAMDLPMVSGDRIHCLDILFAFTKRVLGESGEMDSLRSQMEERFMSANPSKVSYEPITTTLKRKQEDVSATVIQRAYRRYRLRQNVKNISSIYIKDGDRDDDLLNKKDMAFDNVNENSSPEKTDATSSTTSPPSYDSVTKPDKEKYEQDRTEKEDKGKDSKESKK
Protocol for Nav 1.5: as §1, §2, §3

With `O=S(=O)(Nc1ncns1)N1CCc2c(cccc2-c2ccc(C(F)(F)F)cc2-c2cccnc2)C1` [Example 22, 5-(2-(Pyridin-3-yl)-4-(trifluoromethyl)phenyl)-N-(1,2,4-thiadiazol-5-yl)-3,4-dihydroisoquinoline-2(1H)-sulfonamide], the figures for the IC50 against Nav 1.7 [1], against Nav 1.5 and at Nav 1.7 [2] were 0.0805 µM, > 10 µM and 0.47 µM, respectively.
For `Cn1nccc1-c1cc(C(F)(F)F)ccc1-c1cccc2c1CCN(S(=O)(=O)Nc1ncns1)C2` [Example 1, 5-(2-(1-Methyl-1H-pyrazol-5-yl)-4-(trifluoromethyl)phenyl)-N-(1,2,4-thiadiazol-5-yl)-3,4-dihydroisoquinoline-2(1H)-sulfonamide], in that order: 0.0363 µM, > 10 µM and 0.12 µM.
As to `CN1CC=C(c2cc(C(F)(F)F)ccc2-c2cccc3c2CCN(S(=O)(=O)Nc2ncc(F)s2)C3)CC1` [Example 39, N-(5-Fluorothiazol-2-yl)-5-(2-(1-methyl-1,2,3,6-tetrahydropyridin-4-yl)-4-(trifluoromethyl)phenyl)-3,4-dihydroisoquinoline-2(1H)-sulfonamide], the IC50 was 0.24 µM against Nav 1.7 [1], > 10 µM against Nav 1.5 and 1.17 µM on Nav 1.7 [2].
Turning to `C[N+]1(C)CC=C(c2cc(C(F)(F)F)ccc2-c2cccc3c2CCN(S(=O)(=O)Nc2ncns2)C3)CC1` [Example 14, 4-(2-(2-(N-(1,2,4-Thiadiazol-5-yl)sulfamoyl)-1,2,3,4-tetrahydroisoquinolin-5-yl)-5-(trifluoromethyl)phenyl)-1,1-dimethyl-1,2,3,6-tetrahydropyridin-1-ium hydroxide], the IC50 against Nav 1.7 [1] is 0.684 µM; against Nav 1.5, > 10 µM; against Nav 1.7 [2], 3.53 µM.
As for `Cn1nccc1-c1cc(C(F)(F)F)ccc1-c1cccc2c1CCN(S(=O)(=O)Nc1nccs1)C2` [Example 3, 5-(2-(1-methyl-1H-pyrazol-5-yl)-4-(trifluoromethyl)phenyl)-N-(thiazol-2-yl)-3,4-dihydroisoquinoline-2(1H)-sulfonamide], the values for the IC50 at Nav 1.7 [1], against Nav 1.5 and on Nav 1.7 [2] were 0.414 µM, > 10 µM and 2.01 µM, respectively.
As for `CN1CC=C(c2cc(C(F)(F)F)ccc2-c2cccc3c2CCN(S(=O)(=O)Nc2ncns2)C3)CC1` [Example 15, 5-(2-(1-Methyl-1,2,3,6-tetrahydropyridin-4-yl)-4-(trifluoromethyl)phenyl)-N-(1,2,4-thiadiazol-5-yl)-3,4-dihydroisoquinoline-2(1H)-sulfonamide], the IC50 on Nav 1.7 [1] was 0.0783 µM; on Nav 1.5 it was > 10 µM; on Nav 1.7 [2] it was 0.09 µM.
In the same order, the values of `O=S(=O)(Nc1ncns1)N1CCc2c(cccc2-c2ccc(C(F)(F)F)cc2-c2cn[nH]c2)C1` [Example 17, 5-(2-(1H-Pyrazol-4-yl)-4-(trifluoromethyl)phenyl)-N-(1,2,4-thiadiazol-5-yl)-3,4-dihydroisoquinoline-2(1H)-sulfonamide] are 0.157 µM, > 10 µM and 0.35 µM.
Consider `CC(C)(C)OC(=O)N1CC=C(c2cccc3c2CCN(S(=O)(=O)Nc2ncns2)C3)CC1` [Example 57, tert-Butyl 4-(2-(N-(1,2,4-thiadiazol-5-yl)sulfamoyl)-1,2,3,4-tetrahydroisoquinolin-5-yl)-5,6-dihydropyridine-1(2H)-carboxylate], for which the results for the IC50 on Nav 1.7 [1] and on Nav 1.5 were 7.1 µM and > 10 µM, respectively.
Regarding `COc1cc(C(F)(F)F)ccc1-c1cccc2c1CN(S(=O)(=O)Nc1ncns1)CC2` [Example 55, 8-(2-Methoxy-4-(trifluoromethyl)phenyl)-N-(1,2,4-thiadiazol-5-yl)-3,4-dihydroisoquinoline-2(1H)-sulfonamide], the IC50 was 9.44 µM against Nav 1.7 [1] and > 10 µM on Nav 1.5.
For `Cc1cncc(-c2cc(C(F)(F)F)ccc2-c2cccc3c2CCN(S(=O)(=O)Nc2ncns2)C3)c1` [Example 21, 5-(2-(5-Methylpyridin-3-yl)-4-(trifluoromethyl)phenyl)-N-(1,2,4-thiadiazol-5-yl)-3,4-dihydroisoquinoline-2(1H)-sulfonamide], the IC50 against Nav 1.7 [1] is 1.8 µM; against Nav 1.5, 4.08 µM.
`COc1cc(-c2ccc(F)c(F)c2)ccc1-c1cccc2c1CCN(S(=O)(=O)Nc1nncs1)C2` [Example 62, 5-(3′,4′-difluoro-3-methoxy-[1,1′-biphenyl]-4-yl)-N-(1,3,4-thiadiazol-2-yl)-3,4-dihydroisoquinoline-2(1H)-sulfonamide]: on Nav 1.7 [2], the IC50 is 8.05 µM.
`COc1cc(C(F)(F)F)ccc1-c1ncnc2c1CCN(S(=O)(=O)Nc1ncc(F)s1)C2` [Example 60, N-(5-fluorothiazol-2-yl)-4-(2-methoxy-4-(trifluoromethyl)phenyl)-5,6-dihydropyrido[3,4-d]pyrimidine-7(8H)-sulfonamide] gave an IC50 against Nav 1.7 [2] of 0.81 µM.
Take `COc1cc(C(F)(F)F)ccc1-c1ccnc2c1CCN(S(=O)(=O)Nc1ccncn1)C2` [Example 64, 4-(2-methoxy-4-(trifluoromethyl)phenyl)-N-4-pyrimidinyl-5,8-dihydro-1,7-naphthyridine-7(6H)-sulfonamide]: inhibition at Nav 1.7 [2] was half-maximal at 6.19 µM (IC50).
For the molecule `O=S(=O)(Nc1ncns1)N1CCc2c(cccc2-c2cncc3ccccc23)C1` [Example 25, N-(1,2,4-Thiadiazol-5-yl)-3′,4′-dihydro-[4,5′-biisoquinoline]-2′(1′H)-sulfonamide], the IC50 is 6.9 µM on Nav 1.7 [1] and > 10 µM against Nav 1.5.
The molecule `COc1ccc(-c2ccc(F)c(F)c2)cc1-c1cccc2c1CCN(S(=O)(=O)Nc1nncs1)C2` [Example 63, 5-(3′,4′-difluoro-4-methoxy-[1,1′-biphenyl]-3-yl)-N-(1,3,4-thiadiazol-2-yl)-3,4-dihydroisoquinoline-2(1H)-sulfonamide] registered an IC50 against Nav 1.7 [2] of 11.2 µM.
Turning to `O=S(=O)(Nc1ncns1)N1CCc2c(cccc2-c2cccc3[nH]ncc23)C1` [Example 51, 5-(1H-Indazol-4-yl)-N-(1,2,4-thiadiazol-5-yl)-3,4-dihydroisoquinoline-2(1H)-sulfonamide], the IC50 was 19.1 µM at Nav 1.7 [1] and > 10 µM against Nav 1.5.
Consider `COc1cncc(-c2cc(C(F)(F)F)ccc2-c2cccc3c2CCN(S(=O)(=O)Nc2ncns2)C3)c1` [Example 20, 5-(2-(5-Methoxypyridin-3-yl)-4-(trifluoromethyl)phenyl)-N-(1,2,4-thiadiazol-5-yl)-3,4-dihydroisoquinoline-2(1H)-sulfonamide], for which the values for the IC50 at Nav 1.7 [1] and at Nav 1.5 were 5.83 µM and > 10 µM, respectively.
On to `COc1ncccc1-c1cccc2c1CCN(S(=O)(=O)Nc1ncns1)C2` [Example 50, 5-(2-Methoxypyridin-3-yl)-N-(1,2,4-thiadiazol-5-yl)-3,4-dihydroisoquinoline-2(1H)-sulfonamide], for which the results for the IC50 on Nav 1.7 [1] and against Nav 1.5 were 7.6 µM and > 10 µM, respectively.
For the molecule `CN1CC=C(c2cc(Cl)cc(F)c2-c2cccc3c2CCN(S(=O)(=O)Nc2ncc(F)s2)C3)CC1` [Example 54, 5-(4-Chloro-2-fluoro-6-(1-methyl-1,2,3,6-tetrahydropyridin-4-yl)phenyl)-N-(5-fluorothiazol-2-yl)-3,4-dihydroisoquinoline-2(1H)-sulfonamide], the figures for the IC50 on Nav 1.7 [1] and on Nav 1.5 were 14.9 µM and > 10 µM, respectively.

One may read the IC50 as the concentration needed to halve the response being measured. Lower therefore signals greater potency in that assay.
